Assay results: PMC12446458, “Structural basis for DNA break sensing by human MRE11-RAD50-NBS1 and its regulation by telomeric factor TRF2” (Nature Communications, 2025)

T1: MR complex (human MRE11-RAD50) (Homo sapiens, UniProt Q92878)
T1 construct: MR complex, no NBS1; with Double-strand break repair protein MRE11
T1 sequence (Q92878 1-1312): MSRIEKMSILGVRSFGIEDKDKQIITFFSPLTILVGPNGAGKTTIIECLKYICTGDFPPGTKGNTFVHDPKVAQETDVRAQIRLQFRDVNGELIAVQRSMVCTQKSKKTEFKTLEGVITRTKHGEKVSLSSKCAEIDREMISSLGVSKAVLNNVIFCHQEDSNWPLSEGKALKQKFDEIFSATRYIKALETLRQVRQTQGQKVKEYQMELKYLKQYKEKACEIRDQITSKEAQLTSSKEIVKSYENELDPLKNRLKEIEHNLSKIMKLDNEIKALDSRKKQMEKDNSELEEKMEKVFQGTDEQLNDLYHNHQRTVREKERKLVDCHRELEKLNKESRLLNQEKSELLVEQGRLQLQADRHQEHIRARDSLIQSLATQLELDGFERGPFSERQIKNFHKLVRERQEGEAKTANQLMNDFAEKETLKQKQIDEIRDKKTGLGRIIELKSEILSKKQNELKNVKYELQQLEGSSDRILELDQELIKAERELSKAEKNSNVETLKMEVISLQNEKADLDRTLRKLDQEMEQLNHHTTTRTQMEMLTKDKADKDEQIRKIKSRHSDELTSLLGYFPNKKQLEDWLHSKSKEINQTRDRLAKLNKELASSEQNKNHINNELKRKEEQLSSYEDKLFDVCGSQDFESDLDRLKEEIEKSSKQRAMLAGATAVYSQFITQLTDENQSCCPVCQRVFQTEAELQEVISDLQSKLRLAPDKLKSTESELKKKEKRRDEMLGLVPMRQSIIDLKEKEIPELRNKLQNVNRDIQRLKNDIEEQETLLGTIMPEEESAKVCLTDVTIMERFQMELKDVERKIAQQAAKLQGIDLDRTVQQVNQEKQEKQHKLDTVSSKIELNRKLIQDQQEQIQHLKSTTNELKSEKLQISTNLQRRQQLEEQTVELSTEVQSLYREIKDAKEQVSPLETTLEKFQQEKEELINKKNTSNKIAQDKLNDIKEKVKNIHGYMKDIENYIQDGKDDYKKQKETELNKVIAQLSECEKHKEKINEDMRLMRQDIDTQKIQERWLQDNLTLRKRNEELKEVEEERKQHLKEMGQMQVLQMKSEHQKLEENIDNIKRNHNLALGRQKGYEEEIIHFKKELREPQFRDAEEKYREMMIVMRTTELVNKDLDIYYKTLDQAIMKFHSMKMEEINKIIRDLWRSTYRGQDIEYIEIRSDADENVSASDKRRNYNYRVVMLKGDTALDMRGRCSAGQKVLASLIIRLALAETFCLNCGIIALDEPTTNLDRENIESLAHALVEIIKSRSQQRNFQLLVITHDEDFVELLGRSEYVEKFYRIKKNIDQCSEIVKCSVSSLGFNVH
T1 sequence (P49959 2-708 partner): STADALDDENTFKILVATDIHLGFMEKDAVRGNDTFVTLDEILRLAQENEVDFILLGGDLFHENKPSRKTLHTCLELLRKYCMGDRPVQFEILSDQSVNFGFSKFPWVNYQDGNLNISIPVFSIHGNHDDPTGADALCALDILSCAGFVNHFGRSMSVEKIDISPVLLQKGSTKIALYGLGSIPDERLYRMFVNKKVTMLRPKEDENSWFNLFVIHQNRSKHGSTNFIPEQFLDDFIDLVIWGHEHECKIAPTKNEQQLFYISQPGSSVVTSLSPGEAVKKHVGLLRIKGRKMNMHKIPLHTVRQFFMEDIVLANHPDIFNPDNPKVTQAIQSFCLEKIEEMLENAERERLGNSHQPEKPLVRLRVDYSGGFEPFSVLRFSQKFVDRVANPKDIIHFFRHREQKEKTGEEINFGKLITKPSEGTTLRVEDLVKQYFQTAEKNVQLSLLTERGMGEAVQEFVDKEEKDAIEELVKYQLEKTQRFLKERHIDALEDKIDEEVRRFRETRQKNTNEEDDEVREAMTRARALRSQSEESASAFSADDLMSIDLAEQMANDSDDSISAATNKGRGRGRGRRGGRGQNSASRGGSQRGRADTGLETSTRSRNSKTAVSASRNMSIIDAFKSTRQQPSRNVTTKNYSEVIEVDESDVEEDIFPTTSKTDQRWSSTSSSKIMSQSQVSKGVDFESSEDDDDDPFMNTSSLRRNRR

T2: MRN complex (human MRE11-RAD50-NBS1) (Homo sapiens, UniProt Q92878)
T2 construct: Expi293F (MRE11 H129N) or Hi5 insect cells (wild type); with Double-strand break repair protein MRE11; Nibrin
T2 sequence (Q92878 1-1312): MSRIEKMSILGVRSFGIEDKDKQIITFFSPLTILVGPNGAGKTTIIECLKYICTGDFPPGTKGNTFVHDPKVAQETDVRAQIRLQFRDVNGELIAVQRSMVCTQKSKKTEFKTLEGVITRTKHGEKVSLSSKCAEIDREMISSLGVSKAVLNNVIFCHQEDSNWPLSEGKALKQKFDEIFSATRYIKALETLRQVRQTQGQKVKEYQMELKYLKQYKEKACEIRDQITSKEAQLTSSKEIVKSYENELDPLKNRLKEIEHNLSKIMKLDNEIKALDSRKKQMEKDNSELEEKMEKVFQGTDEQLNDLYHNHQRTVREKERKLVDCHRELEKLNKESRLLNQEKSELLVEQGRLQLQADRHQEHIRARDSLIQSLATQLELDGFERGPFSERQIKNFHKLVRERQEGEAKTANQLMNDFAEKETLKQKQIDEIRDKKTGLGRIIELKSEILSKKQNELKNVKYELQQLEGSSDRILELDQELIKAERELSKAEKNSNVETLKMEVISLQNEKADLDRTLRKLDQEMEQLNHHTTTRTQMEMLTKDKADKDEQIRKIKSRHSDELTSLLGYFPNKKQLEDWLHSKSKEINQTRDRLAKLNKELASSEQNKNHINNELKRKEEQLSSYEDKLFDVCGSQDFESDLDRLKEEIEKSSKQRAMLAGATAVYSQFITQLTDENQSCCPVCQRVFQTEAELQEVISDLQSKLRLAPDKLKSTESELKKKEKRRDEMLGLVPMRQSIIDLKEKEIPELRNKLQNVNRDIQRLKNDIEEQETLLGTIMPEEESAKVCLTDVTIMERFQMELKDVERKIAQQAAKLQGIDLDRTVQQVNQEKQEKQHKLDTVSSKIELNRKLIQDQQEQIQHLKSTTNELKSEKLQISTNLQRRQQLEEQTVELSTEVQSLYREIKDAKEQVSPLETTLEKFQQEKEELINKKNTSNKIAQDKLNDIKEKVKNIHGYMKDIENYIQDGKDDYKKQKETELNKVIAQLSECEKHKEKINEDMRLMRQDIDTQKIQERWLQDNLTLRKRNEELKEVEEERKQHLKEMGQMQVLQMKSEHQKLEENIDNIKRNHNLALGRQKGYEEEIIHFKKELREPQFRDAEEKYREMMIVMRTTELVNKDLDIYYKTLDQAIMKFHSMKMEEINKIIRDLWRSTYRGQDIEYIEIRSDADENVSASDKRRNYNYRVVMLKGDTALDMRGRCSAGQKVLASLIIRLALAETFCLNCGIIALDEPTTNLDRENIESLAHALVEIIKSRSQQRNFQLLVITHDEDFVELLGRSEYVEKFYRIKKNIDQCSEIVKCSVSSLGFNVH
T2 sequence (P49959 2-708 partner): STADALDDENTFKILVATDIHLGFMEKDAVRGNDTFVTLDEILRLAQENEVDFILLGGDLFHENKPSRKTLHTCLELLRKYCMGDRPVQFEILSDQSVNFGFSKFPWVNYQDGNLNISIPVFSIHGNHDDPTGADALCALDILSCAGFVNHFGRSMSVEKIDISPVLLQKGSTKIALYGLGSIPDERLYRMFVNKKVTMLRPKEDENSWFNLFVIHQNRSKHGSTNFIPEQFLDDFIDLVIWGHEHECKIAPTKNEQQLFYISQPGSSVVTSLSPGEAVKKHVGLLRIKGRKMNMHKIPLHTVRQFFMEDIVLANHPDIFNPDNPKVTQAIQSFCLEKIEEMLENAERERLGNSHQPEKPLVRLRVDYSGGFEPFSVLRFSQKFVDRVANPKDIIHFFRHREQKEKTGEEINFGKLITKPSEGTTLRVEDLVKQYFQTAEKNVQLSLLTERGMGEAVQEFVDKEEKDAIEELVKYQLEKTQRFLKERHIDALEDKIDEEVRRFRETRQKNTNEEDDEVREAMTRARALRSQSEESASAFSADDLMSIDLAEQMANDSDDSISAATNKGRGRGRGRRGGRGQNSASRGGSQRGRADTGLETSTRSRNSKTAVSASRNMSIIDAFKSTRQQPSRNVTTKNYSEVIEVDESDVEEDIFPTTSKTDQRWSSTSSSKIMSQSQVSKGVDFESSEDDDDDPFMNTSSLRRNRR
T2 sequence (O60934 1-754 partner): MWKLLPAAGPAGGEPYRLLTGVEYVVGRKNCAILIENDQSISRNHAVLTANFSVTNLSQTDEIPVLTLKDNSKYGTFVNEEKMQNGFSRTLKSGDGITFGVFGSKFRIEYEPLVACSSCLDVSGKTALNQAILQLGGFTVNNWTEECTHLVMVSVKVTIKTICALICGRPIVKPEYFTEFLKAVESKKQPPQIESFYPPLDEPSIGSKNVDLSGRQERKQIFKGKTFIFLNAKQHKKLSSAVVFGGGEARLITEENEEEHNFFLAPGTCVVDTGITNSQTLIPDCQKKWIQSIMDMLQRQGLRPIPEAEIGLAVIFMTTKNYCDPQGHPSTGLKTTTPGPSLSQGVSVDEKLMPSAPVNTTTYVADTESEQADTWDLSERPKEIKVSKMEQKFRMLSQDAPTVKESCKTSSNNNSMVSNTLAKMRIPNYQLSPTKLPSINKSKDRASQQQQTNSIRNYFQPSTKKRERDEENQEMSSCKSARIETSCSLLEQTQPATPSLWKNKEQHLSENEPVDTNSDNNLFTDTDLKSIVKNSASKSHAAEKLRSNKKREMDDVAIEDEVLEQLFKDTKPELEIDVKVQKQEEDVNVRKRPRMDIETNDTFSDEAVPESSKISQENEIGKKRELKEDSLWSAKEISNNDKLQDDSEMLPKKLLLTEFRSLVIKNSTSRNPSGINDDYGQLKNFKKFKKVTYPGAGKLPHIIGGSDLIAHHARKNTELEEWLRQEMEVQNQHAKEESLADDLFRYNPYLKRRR

B1: 64 bp Myb DNA, 6-FAM (dsDNA)
DNA 1: TCTAGGGTTAGGGTTAGATTAACGCTTCTGGAGAAACTCAACGAGCTCTAACCCTAACCCTAGA
DNA 2: TCTAGGGTTAGGGTTAGAGCTCGTTGAGTTTCTCCAGAAGCGTTAATCTAACCCTAACCCTAGA

Tests used:
[1] = molecular target: T1, MR complex (human MRE11-RAD50); assay: NADH-coupled ATPase assay; assay type: biochemical; conditions: 0.15 mM ATP, 2 mM MgCl2, 1 mM MnCl2, pH 7.5, 37 °C; with and without 64 bp Myb DNA; rate in figure only
[2] = molecular target: T2, MRN complex (human MRE11-RAD50-NBS1); assay: NADH-coupled ATPase assay; assay type: biochemical; conditions: 0.15 mM ATP, 2 mM MgCl2, 1 mM MnCl2, pH 7.5, 37 °C; with and without 64 bp Myb DNA; rate in figure only; MRE11 wild type or H129N not clearly told for this assay
TRF2 full length = TRF2 full length (Homo sapiens, UniProt Q15554 1-542); assay: fluorescence anisotropy; 1 mM ATP, 5 mM Mg2+; two specific binding sites fit; FA: 25 mM HEPES pH 8.0, 100 mM NaCl, 5 mM MgCl2, 0.2 mg/ml BSA, 1 mM DTT, 1 mM ATP unless stated, 30 nM 6-FAM DNA, read over 30 min; temperature not stated; conditions: protein: recombinant; tags: MBP removed (3C); C-terminal His10; chain copies: 2; blunt
Chain of TRF2 full length (Q15554 whole entry): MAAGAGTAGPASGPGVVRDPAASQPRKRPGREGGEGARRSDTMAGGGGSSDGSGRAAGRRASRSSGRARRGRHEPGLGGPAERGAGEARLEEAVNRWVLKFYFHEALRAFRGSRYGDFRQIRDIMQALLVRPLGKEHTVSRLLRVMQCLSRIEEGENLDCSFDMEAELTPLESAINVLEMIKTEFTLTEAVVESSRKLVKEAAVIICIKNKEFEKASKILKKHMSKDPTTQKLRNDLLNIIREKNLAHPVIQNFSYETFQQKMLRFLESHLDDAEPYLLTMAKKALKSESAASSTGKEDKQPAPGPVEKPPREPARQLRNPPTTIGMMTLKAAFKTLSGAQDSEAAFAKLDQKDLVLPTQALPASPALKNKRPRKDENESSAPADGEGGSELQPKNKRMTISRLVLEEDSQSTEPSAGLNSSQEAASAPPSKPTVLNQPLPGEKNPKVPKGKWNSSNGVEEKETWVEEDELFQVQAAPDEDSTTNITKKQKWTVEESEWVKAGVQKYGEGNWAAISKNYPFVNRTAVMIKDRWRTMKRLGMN

Row | Molecule | NADH-coupled ATPase assay [1] | NADH-coupled ATPase assay [2] | Kd (TRF2 full length)
1 | Nc1ncnc2c1ncn2[C@@H]1O[C@H](COP(=O)(O)OP(=O)(O)OP(=O)(O)O)[C@@H](O)[C@H]1O [ATP] | ATPase activity of MR(N) complex stimulated by DNA binding | The purified MRN complex showed the characteristic DNA-stimulated ATPase activity | –
2 | B1 | – | – | 121 nM
